Laboratory results taken from article PMC11358582, “Discovery of a potential bladder cancer inhibitor CHNQD-01281 by regulating EGFR and promoting infiltration of cytotoxic T cells” (Marine Life Science & Technology, 2024).

How the values were obtained:
Assay in all cases: MTT cell proliferation assay
Type in all cases: cell-based, human
[1] = test system: HuH-7 cells
Protocol: (§1) Human tumor cell lines Eca-109, BEL-7402, BxPC-3, HCT-116, HT-29, T24, HCT-8, SGC-7901, DLD-1, TE-1, BT-549, MGC-803 and human hepatocyte cell line L-02 were cultured in Roswell Park Memorial Institute (RPMI) 1640. HuH-7 and SW-480 were cultured in Dulbecco’s modified Eagle’s medium (DMEM). J82, HepG2, Hela, U87 were cultured in Minimum Essential Medium (MEM). Murine bladder cancer cell line, MB49, was cultured in DMEM. The above-mentioned culture medium was provided by GIBCO (Grand Island, USA), contained 10% fetal bovine serum (PAN, Germany), 10 mg/mL of streptomycin, and 10 kU/mL penicillin (Beyotime, China).
(§2) Cells were seeded in 96-well plates and incubated with indicated concentrations of CHNQD-01281 for indicated periods. Next, medium was discarded and MTT (5 mg/mL) was added to each well. The cells were incubated at 37 °C for another 4 h. After that, supernatant was discarded, and DMSO was added and incubated at 37 °C for 15 min. Finally, absorbance was measured at 570 nm (Molecular Devices, USA).
(§3) To investigate whether CHNQD-01281 had selective inhibitory effect on cancer cell lines, a variety of human tumor cell lines were assayed by MTT, such as bladder cancer cell lines (J82 and T24), colorectal cancer cell lines (HCT-116, HT-29, HCT-8, DLD-1 and SW-480), cervical cancer cell line (Hela), esophageal cancer cell lines (TE-1 and Eca-109), breast cancer cell line (BT-549), gastric carcinoma cell lines (MGC-803 and SGC-7901), glioma cell line (U87), pancreatic carcinoma cell line (BxPC-3) and hepatocellular carcinoma cell lines (Hep G2, BEL-7402 and HuH-7) (Fig. 2A).

[2] = test system: MGC-803 cells
Protocol: as §1, §2, §3

[3] = test system: SGC-7901 cells
Protocol: as §1, §2, §3

[4] = test system: BEL-7402 cells
Protocol: as §1, §2, §3

[5] = test system: DLD-1 cells
Protocol: as §1, §2, §3

[6] = test system: TE-1 cells
Protocol: as §1, §2, §3

[7] = test system: U87 cells
Protocol: as §1, §2, §3

[8] = test system: HT-29 cells
Protocol: as §1, §2, §3

[9] = test system: J82 cells
Protocol: as §1, §2, §3

[10] = test system: Eca-109 cells
Protocol: as §1, §2, §3

[11] = test system: SW-480 cells
Protocol: as §1, §2, §3

[12] = test system: HCT-116 cells
Protocol: as §1, §2, §3

[13] = test system: BT-549 cells
Protocol: as §1, §2, §3

[14] = test system: BxPC-3 cells
Protocol: as §1, §2, §3

[15] = test system: T24 cells
Protocol: as §1, §2, §3

[16] = test system: Hela cells
Protocol: as §1, §2, §3

[17] = test system: HCT-8 cells
Protocol: as §1, §2, §3

[18] = test system: Hep G2 cells
Protocol: as §1, §2, §3

## C[C@H]1CCC/C=C/[C@@H]2C[C@H](O)C[C@H]2[C@H](OC(=O)/C=C/c2cccnc2)/C=C/C(=O)O1 [CHNQD-01281, Brefeldin A 4-O-3-(pyridin-3-yl) acrylate]
[1]; Homo sapiens, HuH-7, MTT
  IC90: > 1000 nM
[1]; Homo sapiens, HuH-7, MTT, 72 h
  IC50: 510 nM
[1]; L-02 versus HuH-7
  SI (selectivity index): 2.27
[2]; Homo sapiens, MGC-803, MTT
  IC90: > 1000 nM
[2]; Homo sapiens, MGC-803, MTT, 72 h
  IC50: 690 nM
[2]; L-02 versus MGC-803
  SI (selectivity index): 1.68
[3]; Homo sapiens, SGC-7901, MTT
  IC90: 750 nM
[3]; Homo sapiens, SGC-7901, MTT, 72 h
  IC50: 340 nM
[3]; L-02 versus SGC-7901
  SI (selectivity index): 3.41
[4]; Homo sapiens, BEL-7402, MTT
  IC90: 820 nM
[4]; Homo sapiens, BEL-7402, MTT, 72 h
  IC50: 260 nM
[4]; L-02 versus BEL-7402
  SI (selectivity index): 4.46
[5]; Homo sapiens, DLD-1, MTT
  IC90: 640 nM
[5]; Homo sapiens, DLD-1, MTT, 72 h
  IC50: 340 nM
[5]; L-02 versus DLD-1
  SI (selectivity index): 3.41
[6]; Homo sapiens, TE-1, MTT
  IC90: > 1000 nM
[6]; Homo sapiens, TE-1, MTT, 72 h
  IC50: 620 nM
[6]; L-02 versus TE-1
  SI (selectivity index): 1.87
[7]; Homo sapiens, U-87 MG, U87, MTT
  IC90: > 1000 nM
[7]; Homo sapiens, U-87 MG, U87, MTT, 72 h
  IC50: 650 nM
[7]; L-02 versus U87
  SI (selectivity index): 1.78
[8]; Homo sapiens, HT-29, MTT
  IC90: > 1000 nM
[8]; Homo sapiens, HT-29, MTT, 72 h
  IC50: 370 nM
[8]; L-02 versus HT-29
  SI (selectivity index): 3.14
[9]; Homo sapiens, J82, 1 µmol/L (highest concentration), 24 h
  inhibition at 1 µM: < 50%
[9]; Homo sapiens, J82, MTT
  IC90: 400 nM
[9]; Homo sapiens, J82, MTT, 72 h
  IC50: 81 nM
[9]; L-02 versus J82
  SI (selectivity index): 14.32
[10]; Homo sapiens, Eca-109, MTT
  IC90: > 1000 nM
[10]; Homo sapiens, Eca-109, MTT, 72 h
  IC50: 540 nM
[10]; L-02 versus Eca-109
  SI (selectivity index): 2.15
[11]; Homo sapiens, SW480, SW-480, MTT
  IC90: > 1000 nM
[11]; Homo sapiens, SW480, SW-480, MTT, 72 h
  IC50: 730 nM
[11]; L-02 versus SW-480
  SI (selectivity index): 1.59
[12]; Homo sapiens, HCT-116, MTT
  IC90: 640 nM
[12]; Homo sapiens, HCT-116, MTT, 72 h
  IC50: 350 nM
[12]; L-02 versus HCT-116
  SI (selectivity index): 3.31
[13]; Homo sapiens, BT-549, MTT
  IC90: > 1000 nM
[13]; Homo sapiens, BT-549, MTT, 72 h
  IC50: 640 nM
[13]; L-02 versus BT-549
  SI (selectivity index): 1.81
[14]; Homo sapiens, BxPC-3, MTT
  IC90: 350 nM
[14]; Homo sapiens, BxPC-3, MTT, 72 h
  IC50: 180 nM
[14]; L-02 versus BxPC-3
  SI (selectivity index): 6.44
[15]; Homo sapiens, T-24, T24, 0.125 µmol/L, 120 h, read-out: inhibition of growth
  inhibition at 0.125 µM: ~100%
[15]; Homo sapiens, T-24, T24, 1 µmol/L (highest concentration), 24 h
  inhibition at 1 µM: < 50%
[15]; Homo sapiens, T-24, T24, MTT
  IC90: 300 nM
[15]; Homo sapiens, T-24, T24, MTT, 72 h
  IC50: 79 nM
[15]; L-02 versus T24
  SI (selectivity index): 14.68
[16]; Homo sapiens, Hela, MTT
  IC90: 780 nM
[16]; Homo sapiens, Hela, MTT, 72 h
  IC50: 190 nM
[16]; L-02 versus Hela
  SI (selectivity index): 6.11
[17]; Homo sapiens, HCT-8, MTT
  IC90: 440 nM
[17]; Homo sapiens, HCT-8, MTT, 72 h
  IC50: 170 nM
[17]; L-02 versus HCT-8
  SI (selectivity index): 6.82
[18]; Homo sapiens, HepG2, Hep G2, MTT
  IC90: > 1000 nM
[18]; Homo sapiens, HepG2, Hep G2, MTT, 72 h
  IC50: 420 nM
[18]; L-02 versus Hep G2
  SI (selectivity index): 2.76
